Assay results as given in US8372867B2, “Insecticidal aryl isoxazoline derivatives” (Bayer CropScience AG, priority 2007, dated 2013).

Columns and labels:
[1] = test system: Aulacophora femoralis; test: Test against Aulacophora femoralis (leaf dip); format: in vivo; conditions: 100 ppm of the active compound; second instar larvae; after 7 days
Description: (§1) To prepare an appropriate formulation of an active compound, 1 part by weight of the active compound was mixed with the aforementioned amount of the solvent containing the aforementioned amount of the emulsifier, and the mixture was diluted to a prescribed concentration with water.
Leaves of cucumbers were soaked in a diluted aqueous solution of the prescribed concentration of an active compound prepared in the same manner as in the aforementioned tests, air-dried, and placed a plastic cup containing sterilized black soil. Into this cup, 5 larvae of Aulacophora femoralis at second instar were then released. After 7 days, the number of dead larvae was counted to calculate the death rate.

[2] = test system: Boophilus microplus; test: whole plant or invertebrate; conditions: Rhipicephalus microplus, 168 h, read-out: activity (mortality in %)
[3] = test system: Lucilia cuprina larvae; test: whole plant or invertebrate; conditions: in Equus caballus, read-out: activity (mortality in %)
[4] = test system: Spodoptera litura; test: Test against larva of Spodoptera litura (leaf dip); format: in vivo; conditions: 100 ppm of the active compound; third instar larvae; after 7 days
Description: Solvent: Dimethylformamide 3 parts by weight
Emulsifier: Polyoxyethylene alkyl phenyl ether 1 part by weight
as §1
Leaves of sweet potate were soaked in the test agent diluted to a prescribed concentration with water, air-dried, and placed in a dish of 9 cm in diameter. Into this dish, 10 larvae of Spodoptera litura at the third instar were released and kept in a room at constant temperature of 25° C. After 2 and 4 days, more leaves of sweet potato were added, and the number of dead larvae after 7 days was counted to calculate the death rate. In this test, the test results are presented as an average of the results of two dishes per section.

[5] = test system: Musca domestica; test: whole plant or invertebrate; conditions: read-out: activity (mortality in %)
[6] = test system: organic phosphorus agent- and carbamate agent-resistant Myzus persicae; test: Test against organic phosphorus agent- and carbamate agent-resistant Myzus persicae (spray); format: in vivo; conditions: 500 ppm of the active compound; adults on eggplant; 7 days at 28° C.
Description: as §1
About 30 to 50 adults of organic phosphorus agent- and carbamate agent-resistant Myzus persicae per seedling were inoculated to leaves of eggplants at two leaf stage cultured in a pot of 6 cm in diameter. One day after the inoculation, an ample amount of the diluted aqueous solution of the prescribed concentration of an active compound prepared in the same manner as in the aforementioned tests was sprayed with a spray gun. After the spraying, the pot was kept in a greenhouse at 28° C. for 7 days, the death rate was calculated. The test was duplicated.

[7] = test system: Ctenocephalides felis felis; test: Efficacy against fleas Ctenocephalides felis felis on cats; format: in vivo; conditions: 0.1 ml/kg (15 mg/kg) applied as Spot-on, once on day 0, weekly reinfestation
Description: On study days −4 and −1 prior to treatment cats are infested with about 100 adult not fed fleas (Ctenocephalides felis felis). The fleas are released on the neck on the fur of the cats
On study day 0 the flea infestation rate is checked by counting the fleas on the animals. The number of live fleas is recorded.
After flea counting the cats are treated with the investigational product. Cats of the control group are left untreated and serve as negative control group. The investigational veterinary product is applied dermally as one spot at a dose volume of 0.1 to 0.2 ml/kg body weight. Treatment is performed only once on study day 0. Only healthy cats are treated and included in the study.
Flea counts are performed on study days 1 and/or 2 where the cats are combed and the number of live fleas recorded. The results are documented.
In weekly intervals the cats are reinfested with about 100 adult not fed fleas per cat. One and/or two days after reinfestation the cats are combed and the live fleas counted for each animal. The results are recorded.
Efficacy should be given over a three to four week period
For the calculation of the effectiveness the modified Abbott formula is used: […]

[8] = test system: Ixodes ricinus; test: Efficacy against ticks (Ixodes ricinus) on cats; format: in vivo; conditions: 0.1 ml/kg (15 mg/kg) applied as Spot on, once on day 0, weekly reinfestation
Description: On study days −4 and/or −1 cats are sedated with a combination of the active ingredients ketaminhydrochloride and acepromazinmaleat. After all cats are sedated (approximately after 10-15 minutes) the cats are placed in single cages and 50 Ixodes ricinus ticks (25 female and 25 male) are released on the fur on the back of the cat. The cats are sleeping for about 1 h to 1.5 h and restrained from grooming and removing the ticks.
On study days −3 or 0 tick infestation rate is checked, while the cats are placed on an examination table. The area around the head, ears, eyes, neck and lateral and ventral part of the body and between the toes is checked intensively. The number of live attached engorged ticks is counted and recorded. Dead ticks are removed.
After tick counting on study day 0 treatment is performed. Cats of the control group are left untreated and serve as negative control group. The investigational veterinary product is applied as one single spot on the skin at the base of the skull. Treatment is performed only once on day 0. […]
On study day 1 and/or 2 tick counts are performed and the number of life or dead attached ticks counted and recorded. […]
In weekly intervals each cat is infested with 50 Ixodes ricinus ticks (25 female and 25 male) and tick counts are performed 1 and/or 2 days after reinfestation. Life and dead attached ticks are counted and recorded. […]

[9] = test system: Boophilus microplus; test: Test against Boophilus microplus (injection, Example 6-1, dimethylformamide); format: in vivo; conditions: dose of 20 ug/animal; injection into abdomen of fully fed adult females
Description: (§2) In order to prepare an appropriate formulation of an active compound, 10 mg of the active compound was dissolved in 0.5 mL of the aforementioned solvent, and the mixture was diluted to a prescribed concentration with water.
A solution of a compound formulated as above was injected into 5 fully fed adult female Boophilus microplus in their abdomen. These Boophilus microplus were transferred to a replica dish and kept in an incubating cabinet for a certain period of time.
After a certain period of time, the death rate of Boophilus microplus was calculated. In this test, the death rate of 100% means death of all Boophilus microplus, while the death rate of 0% means that all the mites survive.

[10] = test system: Ctenocephalides felis; test: Test against Ctenocephalides felis (Example 5-1, blood feeding, dimethylformamide); format: in vivo; conditions: 100 ppm of the active ingredient; adults fed on treated blood
Description: In order to prepare an appropriate formulation of an active compound, 10 mg of the active compound is dissolved in 0.5 mL of the aforementioned solvent, and the mixture is diluted to a prescribed concentration with blood from domestic animals.
About 10 to 15 adults of Ctenocephalides felis were kept in a flea-specific container. Another container containing the blood solution containing the compound prepared as described above was covered with a laboratory film [[…]™]. The blood containing container was turned upside down and placed on the flea-specific container. This system enables Ctenocephalides felis to suck the blood in the container. The blood solution was kept at 37° C. and the flea-specific container was kept at room temperature. After a certain period of time, the death rate of Ctenocephalides felis was calculated. For this test, the death rate of 100% means death of all Ctenocephalides felis, while the death rate of 0% means that all the fleas survived.

[11] = test system: Lucillia cuprina; test: Test against Lucillia cuprina (Example 7-1, dimethylformamide); format: in vivo; conditions: 100 ppm of the active ingredient; larvae on minced horsemeat
Description: as §2
About 20 to 30 larvae of Lucillia cuprina were placed into a test tube containing 1 cm^3 of minced horsemeat and 0.5 mL of an aqueous solution of a compound prepared as above.
After a certain period of time, the death rate of Lucillia cuprina was calculated. For this test, the death rate of 100% means death of all Lucillia cuprina, while the death rate of 0% means that all the flies survived.

[12] = test system: Musca domestica; test: Test against Musca domestica (Example 8-1, dimethylformamide); format: in vivo; conditions: 100 ppm of the active ingredient; adults, sugar/compound soaked sponge
Description: In order to prepare an appropriate formulation of an active compound, 10 mg of the active compound was dissolved in 0.5 mL of the above solvent, and the resultant mixture was diluted to a prescribed concentration with water.
As a preparatory stage, a mixture of sugar and an aqueous solution of a compound prepared as above was absorbed into a sponge of a given size, and the sponge was place into a test container. 10 adult insects of Musca domestica were placed into the container, and the container was covered with a perforated cover.
After a certain period of time, the death rate of Musca domestica is calculated. In this test, the death rate of 100% means death of all Musca domestica, while the death rate of 0% means that all the flies survived.

[13] = test system: Amblyomma hebraeum; test: Test against Amblyomma hebraeum (nymph dip); format: in vivo; conditions: 1008 h, read-out: activity (mortality in %)
Description: Nymphs of the tick Amblyomma hebraeum are placed in perforated plastic beakers and immersed in aqueous compound solution for one minute. Ticks are transferred to a filter paper in a Petri dish and incubated in a climate chamber for 42 days.

Q: With `CC(=O)NCc1ccc(C2=NOC(c3cc(Cl)cc(Cl)c3)(C(F)(F)F)C2)cc1[N+](=O)[O-]` (stereo not drawn) [1-60, N-{4-[5-(3,5-dichlorophenyl)-5-(trifluoromethyl)-4,5-dihydroisoxazol-3-yl]-2-nitrobenzyl}acetamide] as the compound, how does the death rate [1] read?
A: Its death rate is 100%.

Q: What about the mortality at 100 ppm [2] of the same compound?
A: The mortality at 100 ppm was at least 80%.

Q: What about the mortality at 100 ppm [3] of the same compound?
A: The mortality at 100 ppm was at least 80%.

Q: What about the death rate [4] of the same compound?
A: Its death rate is 100%.

Q: And the mortality at 100 ppm [5]?
A: Its mortality at 100 ppm is at least 80%.

Q: For `CC(=O)N(Cc1ccccn1)Cc1ccc(C2=NOC(c3cc(Cl)cc(Cl)c3)(C(F)(F)F)C2)cc1C#N` (stereo not drawn) [1-61, N-{2-cyano-4-[5-(3,5-dichlorophenyl)-5-(trifluoromethyl)-4,5-dihydroisoxazol-3-yl]benzyl}-N-(pyridin-2-ylmethyl)acetamide], which death rate [1] is on record?
A: Its death rate is 100%.

Q: And the mortality at 100 ppm [3]?
A: The mortality at 100 ppm was at least 80%.

Q: And the death rate [4]?
A: Its death rate is 100%.

Q: And the mortality at 100 ppm [5]?
A: Its mortality at 100 ppm is at least 80%.

Q: And the death rate [6]?
A: Its death rate is 100%.

Q: Which results are given for `CC(=O)NCc1ccc(C2=NOC(c3cc(Cl)cc(Cl)c3)(C(F)(F)F)C2)cc1C` (stereo not drawn) [1-63, N-{4-[5-(3,5-dichlorophenyl)-5-(trifluoromethyl)-4,5-dihydroisoxazol-3-yl]-2-methylbenzyl}acetamide]?
A: death rate [1]: 100%; mortality at 100 ppm [2]: ≥ 80%; mortality at 100 ppm [3]: ≥ 80%; death rate [4]: 100%; mortality at 100 ppm [5]: ≥ 80%

Q: What does the source list for `CC(=O)NCc1ccc(C2=NOC(c3cc(Cl)c(Cl)c(Cl)c3)(C(F)(F)F)C2)cc1Br` (stereo not drawn) [1-129]?
A: efficacy (modified Abbott formula) [7]: > 95%; efficacy (modified Abbott formula) [8]: > 90%

Q: With `CC(=O)N(Cc1ccccn1)Cc1ccc(C2=NOC(c3cc(Cl)cc(Cl)c3)(C(F)(F)F)C2)cc1C` (stereo not drawn) [1-64] as the compound, how does the death rate [9] read?
A: Its death rate is “more than 80%”.

Q: And the death rate [10]?
A: The death rate was “more than 80%”.

Q: What about the death rate [11] of the same compound?
A: Its death rate is “more than 80%”.

Q: What about the death rate [12] of the same compound?
A: Its death rate is “more than 80%”.

Q: For `CC(=S)NCc1ccc(C2=NOC(c3cc(Cl)cc(Cl)c3)(C(F)(F)F)C2)cc1Br` (stereo not drawn) [1-44, N-{2-bromo-4-[5-(3,5-dichlorophenyl)-5-(trifluoromethyl)-4,5-dihydroisoxazol-3-yl]benzyl}ethanethioamide], which death rate [1] is on record?
A: Its death rate is 100%.

Q: And the mortality at 100 ppm [2]?
A: The mortality at 100 ppm was at least 80%.

Q: And the mortality at 100 ppm [3]?
A: Its mortality at 100 ppm is at least 80%.

Q: What about the death rate [4] of the same compound?
A: Its death rate is 100%.

Q: What about the mortality at 100 ppm [13] of the same compound?
A: Its mortality at 100 ppm is at least 80%.

Q: And the mortality at 100 ppm [5]?
A: The mortality at 100 ppm was at least 80%.

Q: What does the source list for `O=C(NCc1ccc(C2=NOC(c3cc(Cl)cc(Cl)c3)(C(F)(F)F)C2)cc1Br)c1ccccc1Cl` (stereo not drawn) [1-31]?
A: death rate [1]: 100%; death rate [4]: 100%; death rate [6]: 100%
